Assays:
[1] = test system: classic Menkes disease patients; test: Subcutaneous copper histidinate treatment of Menkes patients (serum copper, renal safety monitoring); assay type: in vivo, human; details: 1450 μg SC BID younger than 12 months, QD older than 12 months
Description: The purpose of this study was to allow currently enrolled participants to complete a three-year course of subcutaneous copper histidinate treatment under a previous protocol. It was hypothesized that subcutaneous injections of this drug will raise serum copper levels and ceruloplasmin levels in enrolled participants, improve neurodevelopmental and neurological outcomes, and reduce mortality compared to untreated affected subjects. The broad overall hypothesis of this treatment study is that subcutaneous copper histidinate injections will normalize circulating copper levels and provide health benefits to individuals with copper deficiency due to genetic abnormalities such as classic Menkes disease or which is unexplained. The trial represents an open-label design in which all enrolled subjects receive subcutaneous injections of copper histidinate. Immediate potential benefits of Copper Histidinate treatment in classic Menkes disease include protection against seizure activity and accrual of neurodevelopmental skills in an age-appropriate fashion. Long-term potential benefits include enhanced lifespan and quality of life, as noted in other subjects with classic Menkes disease treated with Copper Histidinate. […]

[2] = test system: classic Menkes disease patients; details: cited from earlier work
Menkes disease subjects = test: Long term follow up of Menkes disease patients treated with copper histidinate (survival); assay type: in vivo, human; details: early treatment vs untreated historical controls
Description: During the study patients were administered does of copper histidinate as follows: 1450 μg subcutaneous BID in infants up to 12 months of age, and 1450 μg subcutaneous QD for infants and children older than 12 months.
This study was designed as a long term follow up on patients previously identified and/or enrolled in previous studies for the treatment of Menkes disease with copper histidinate and untreated patients to determine survival, neurological development, quality of life status and adverse events. This study followed the patients from the previous examples for long term follow up.
Patients previously enrolled in clinical trials for the treatment of Menkes disease with copper histidinate were assessed for survival status, neurological development status and quality of life. No drug was be administered during this study.

## N[C@@H](Cc1cnc[nH]1)C(=O)[O-].N[C@@H](Cc1cnc[nH]1)C(=O)[O-].[Cu+2] [copper histidinate, (2S)-2-amino-3-(1H-imidazol-5-yl) propanoic acid, Copper]
[1]
  serum copper levels under the standard dosing regimen: maintains serum copper levels in the normal range
[2]
  renal tubular injury caused by copper histidinate: reversible
Menkes disease subjects
  reduction in the risk of death: ~80%
Menkes disease subjects; p<0.00001
  hazard ratio (risk of death): 0.21

— US20240139236A1, “COPPER HISTIDINATE COMPOSITIONS AND USES THEREOF” (Cyprium Therapeutics, Inc., priority 2021, published 2024)
